From patent publication US9717727B2, “Methods of treating and preventing leukemia and other cancers of the blood and bone” (The Trustees of Columbia University in the City of New York, priority 2011, dated 2017)
Like-named read-outs stand apart in the source and are kept apart here.

Legend:
serotonin = details: six consecutive doses, cited from earlier work
serum serotonin = assay: Serum serotonin levels, WEHI/3B study (Example 12); format: in vivo; details: non-leukemic mice treated with LP-533401 (NL-LP); BALB/cJ
Procedure: For measurements of serum serotonin levels, mice were briefly exposed to Isoflurane (Baxter) for 30 seconds and blood was collected by cardiac puncture. Similar volumes of blood were collected from different animals for consistency in the clotting times. Serum collection from all mice was done between 9:00 am and 12:00 pm. Blood was allowed to clot on ice for 5 minutes before centrifugation at maximum speed at 4° C. for 10 minutes. The serum supernatant was removed, snap frozen and stored at −80° C. for further analysis. Serum serotonin levels were quantified by ELISA (Serotonin kit, Fitzgerald) according to manufacturer's instructions. […]
All mice were sacrificed after 2 weeks for the following assessments: • Serum serotonin levels as measured in Example 9; • Body weight as described in Example 2 • Spleen weight as described in Example 2; • Histological analysis of the femur, spleen and liver as described in Example 2; • Trabecular Bone Volume (Bv/TV) as described in Example 3; • and • Gene Expression analysis by PCR as described in Example 3. […]

[1] = test system: WEHI/3B myelomonocytic leukemia cell line; assay: WEHI/3B murine model of AML, tumor burden at tissue level (Example 12); format: in vivo, mice
Procedure: WEHI/3B, a macrophage-like myelomonocytic leukemia cell line established from inbred BALB/c mice, was used. BALB/cJ mice were inoculated with 1×10^6 Wehi-3 cells.
Mice were sacrificed at pre-determined time points as specified before or upon signs of illness. Each animal was weighed before blood was sampled, and visually examined for tumor development. Spleens were isolated and weighed. Spleens and tissue samples from liver were fixed in 10% neutral formalin solution for 48 hours. Osseous samples (thoracic spine, sternum, pelvis, and stifle joint) were decalcified in Decalcifier System I (Leica Microsystems, Inc.) for 48 h after fixation. All tissues were processed by routine methods and embedded in paraffin Sections of 4 or 5 μm were stained with hematoxylin and eosin (H&E) according to standard procedures.
(§1) Histomorphometric analyses were performed on vertebral column specimens collected from 2 months old mice using undecalcified sections using the osteomeasure analysis system (Osteometrics). Lumbar vertebrae were dissected, fixed for 24 hours in 10% formalin, dehydrated in graded ethanol series, and embedded in methyl methacrylate resin according to standard protocols (Chappard et al. (1987); Parfitt et al. (1987)).
(§2) Bone formation rate (BFR) was analyzed by the calcein double-labeling method. Calcein (Sigma) was dissolved in calcein buffer (0.15 M NaCl, 2% NaHCO3) and administered by an intraperitoneal injection of 25 μg/g body weight, 6 days and 2 days before sacrificing the animals. In experiments evaluating survival rates of animals, bone formation rate was not calculated due to the unknown time of death. Unstained 4-μm sections were used for BFR measurements.
(§3) For the analysis of parameters of osteoblast and osteoclast, 4-μm sections were stained with toluidine blue and tartrate-resistant acid phosphatase (TRAP), respectively. Type I collagen content and bone volume over trabecular volume (BV/TV) were analyzed using 7-μm sections by Von Gieson and Von Kossa staining […] respectively in undecalcified sections. Images were taken using a 10× objective on a Leica microscope outfitted with camera. Six to ten animals were analyzed for each group.
Total RNA was isolated from tissues or cultured cells using Trizol, according to the manufacturer's protocol (Invitrogen). Total RNA (2 μg) was treated with DNAse I (Invitrogen), and reverse transcribed at 42° C. with SuperScript II (Invitrogen). The expression of all the genes was measured by real-time quantitative PCR with the SYBR Green Master Mix (Bio-Rad) using β actin or 18s as endogenous control.
BALB/cJ mice purchased from Jackson Laboratory and injected with WEHI/3B, as described in Example 2, were used.
Mice were treated as described in Example 9 and classified as: • Mice with no leukemia treated with a vehicle, i.e., non-leukemic-vehicle-treated (“WT”); • Mice with no leukemia treated with LP-533401, i.e., non-leukemic-LP-533401-treated (“NL-LP”); • Mice with leukemia treated with a vehicle, i.e., leukemic-vehicle-treated (“Leuk-veh”); and • Mice with leukemia treated with LP-533401, i.e., leukemic-LP 533410-treated (“Leuk-LP”).
All mice were sacrificed after 2 weeks for the following assessments: • Serum serotonin levels as measured in Example 9; • Body weight as described in Example 2 • Spleen weight as described in Example 2; • Histological analysis of the femur, spleen and liver as described in Example 2; • Trabecular Bone Volume (Bv/TV) as described in Example 3; • and • Gene Expression analysis by PCR as described in Example 3. Results

Tph2 = target: T1, Tph2 (Homo sapiens, UniProt Q8IWU9); details: in vitro; cited from earlier work
T1 sequence (Q8IWU9 1-490): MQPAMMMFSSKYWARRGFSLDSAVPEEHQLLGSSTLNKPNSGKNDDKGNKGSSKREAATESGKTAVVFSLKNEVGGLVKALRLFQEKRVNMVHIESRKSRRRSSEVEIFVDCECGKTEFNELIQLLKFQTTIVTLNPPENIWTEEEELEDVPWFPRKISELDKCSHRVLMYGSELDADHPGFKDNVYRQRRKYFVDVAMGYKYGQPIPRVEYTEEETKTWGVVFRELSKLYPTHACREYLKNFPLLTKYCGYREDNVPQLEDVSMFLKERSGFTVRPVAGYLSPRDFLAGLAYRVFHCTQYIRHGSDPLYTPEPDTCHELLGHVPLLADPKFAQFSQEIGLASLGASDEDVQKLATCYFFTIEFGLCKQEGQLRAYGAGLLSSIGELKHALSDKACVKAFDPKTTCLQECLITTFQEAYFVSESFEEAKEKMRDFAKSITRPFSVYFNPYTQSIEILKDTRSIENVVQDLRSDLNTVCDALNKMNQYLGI

[2] = in vivo; cited from earlier work
osteoblasts = assay: Histomorphometric bone analysis, EL4 study (Example 9); format: in vivo, mice
Procedure: as §1, §2, §3
Mice were treated orally with LP-533401 (25 or 200 mg per kg of body weight per day) or vehicle. Treatments started 15 days before malignant cell injections in all sets of experiments, and continued for the indicated periods of time. LP-533401 was dissolved in polyethylene glycol (PEG) and 5% dextrose or 2.5% glucose (Sigma), and given daily by oral gavage. Mice treated with vehicle were administered, in the same way as LP533401, a solution of PEG and 5% dextrose or 2.5% glucose, daily, by oral gavage.
Bioluminescence imaging, luciferase intensity measurement, hind-limb paralysis, blood cell counts, bone mass, osteoblast number, bone formation rate and survival were determined as previously described in Examples 2, 3, and 5-7.

[3] = among 14 mice treated (WEHI/3B)
[4] = LP-533401 25 or 200 mg/kg/day oral

SMILES: Nc1nc(OC(c2ccc(-c3cccc(F)c3)cc2)C(F)(F)F)cc(-c2ccc(C[C@H](N)C(=O)O)cc2)n1 (some centres unmarked) [LP-533401]
- serotonin levels in the small intestine lowered (serotonin; 30 mg/kg twice per day): 55%
- serotonin levels in the small intestine lowered (serotonin; 90 mg/kg twice per day): 70%
- brain-derived serotonin (serotonin; 30 or 90 mg/kg twice per day): unchanged
- decrease in serum serotonin levels compared to wild-type mice (serum serotonin): 50%
- anemia observed in leukemic mice ([1]; WEHI/3B): inhibited
- leukemia infiltration in the liver and spleen ([1]; WEHI/3B): limited leukemia infiltration in the liver and spleen
- leukemia-caused decrease in trabecular bone volume, osteoblast numbers and bone formation rate ([1]; WEHI/3B): prevented the decrease
- leukemic mice in which megakaryocyte numbers returned to normal ([1]; WEHI/3B): 70%
- leukemic mice with normal myeloid:erythroid ratio ([1]; WEHI/3B): 50%
- number of leukemia blasts (histology) ([1]; WEHI/3B): reduced number of leukemia blasts
- osteoclast numbers ([1]; WEHI/3B): not affected
- mice with less than 5% marrow blasts [1, 3]: 71%
- number of mice with less than 5% marrow blasts [1, 3]: 10
- expression of osteoblast differentiating genes (osteocalcin, osterix, Runx2, alkaline phosphatase, collagen 1a1) ([1]; femur of leukemic mice (WEHI/3B), PCR): normalize the expression
- cyclin D1 and D2 expression in bone (osteoblast proliferation) ([1]; leukemic mice (WEHI/3B)): increase in cyclin D1 and D2 expression
- enlargement of the spleen (spleen weight) ([1]; leukemic mice (WEHI/3B)): alleviated
- splenic red pulp ([1]; leukemic mice (WEHI/3B)): normal
- animals with a blast percentage of 20% or more in the bone marrow ([1]; leukemic mice (WEHI/3B), 2 weeks): 28%
- body weight ([1]; leukemic vs non-leukemic animals (WEHI/3B)): weight loss was not observed
- inhibition of Tph2 relative to Tph1 (Tph2): inhibits Tph2 as effectively as Tph1
- crossing of the blood-brain barrier [2]: did not cross the blood-brain barrier
- bone resorption (osteoblasts; EL4 study): not affected
- increase in bone formation rate (osteoblasts; [4]): 30%
- increase in bone mass (osteoblasts; [4]): 30%
- increase in osteoblast numbers (osteoblasts; [4]): 30%
- leukemia-induced decrease in osteoblast numbers, bone formation rate and trabecular bone volume (osteoblasts; leukemic mice (EL4)): inhibited the decrease in osteoblast numbers, bone formation rate, and trabecular bone volume
